# Patent US20260215418A1, “HYDROCARBON ALCOHOLS AND THEIR DERIVATIVES AS SYNERGISTS IN PESTICIDE ACTIVITY” (priority 2022, published 2026)
# Read-outs that look alike come from different tables or passages of the source.
# Experiments:
# [1] = tested on: Blatta orientalis; details: for Mortality %/time (h) (application): Table 37, concentrations in mg/ml in label; for Mortality %: Example 36, 25° C, insects on treated tile
# Procedure: Method: Contact test on non-porous tile measuring 400 cm^2 at a temperature of 28° C. Test duration: up to 72 hours after exposure of the insect to the insecticidal active substance.
# (§1) Three tests were performed in parallel, A, B, and C, as follows: • A) Comparative. 1 ml of Composition 2 was applied to the tile. After waiting for the complete evaporation of the solvent, 10 cockroaches were placed on top of the treated tile, starting the test. • B) According to the invention. 1 ml of Composition 8b was distributed on the tile. After waiting for the complete evaporation of the solvent, 1 ml of Composition 2 was added to the same tile. Subsequently, after waiting for the solvent to evaporate, 10 cockroaches were placed on top of the treated tile, starting the test. • C) According to the invention. 1 ml of Composition 8b was distributed on a tile. After waiting for the complete evaporation of the solvent, 10 cockroaches were placed for 30 minutes on top of the treated tile. At the end of the 30 minutes, the cockroaches were transferred to an untreated area.
# Method: Contact test on non-porous tile measuring 400 cm^2 at a temperature of 28° C. Test duration: up to 120 hours after exposure of the insect to the insecticidal active substance.
# as §1, with “4a” for “2”, “8d” for “8b”, “After” for “Subsequently, after”
# Six tests were performed in parallel, A, B, C, D, E and F, as follows: • A) Comparative. 1 ml of Composition 9b was distributed on the tile. After waiting for the complete evaporation of the solvent, 1 ml of Composition 4a was added to the same tile. Subsequently, after waiting for the solvent to evaporate, 10 cockroaches were placed on top of the treated tile, starting the test. • B) Comparative. 1 ml of Composition 9b was distributed on a tile. After waiting for the complete evaporation of the solvent, 10 cockroaches were placed for 30 minutes on top of the treated tile. At the end of the 30 minutes, the cockroaches were transferred to an untreated area. […] 1 ml of Composition 10b was distributed on the tile. After waiting for the complete evaporation of the solvent, 1 ml of Composition 4a was added to the same tile. Subsequently, after waiting for the solvent to evaporate, 10 cockroaches were placed on top of the treated tile, starting the test. • D) Comparative. 1 ml of Composition 10b was distributed on a tile. After waiting for the complete evaporation of the solvent, 10 cockroaches were placed for 30 minutes on top of the treated tile. At the end of the 30 minutes, the cockroaches were transferred to an untreated area. […] 1 ml of Composition 8d was distributed on the tile. After waiting for the complete evaporation of the solvent, 1 ml of Composition 4a was added to the same tile. Subsequently, after waiting for the solvent to evaporate, 10 cockroaches were placed on top of the treated tile, starting the test. • F) According to the invention. 1 ml of Composition 8d was distributed on a tile. After waiting for the complete evaporation of the solvent, 10 cockroaches were placed for 30 minutes on top of the treated tile. At the end of the 30 minutes, the cockroaches were transferred to an untreated area.
# [2] = tested on: Musca domestica L.; assay: Contact test on non-porous tile, Musca domestica; assay type: in vivo; parameters: Mortality %: concentration or dose not given beside the values; details: for Mortality %: insects on treated tile; for mortality at 680 µg/mL: 0.68 mg/ml
# Procedure: 1 ml of Composition 1 was applied to the tile. […] 1 ml of Composition 8a was distributed on the tile. […] 1 ml of Composition 8a was distributed on a tile. […] At the end of the 30 minutes, the flies were transferred to an untreated area.
# 1 ml of Composition 3 was applied to the tile. […] 1 ml of Composition 8c was distributed on the tile. […] 1 ml of Composition 8c was distributed on a tile. […] At the end of the 30 minutes, the flies were transferred to an untreated area.
# 1 ml of Composition 9a was distributed on the tile. […] 1 ml of Composition 9a was distributed on a tile. […] At the end of the 30 minutes, the flies were transferred to an untreated area. […] 1 ml of Composition 10a was distributed on the tile. […] 1 ml of Composition 10a was distributed on a tile. […] At the end of the 30 minutes, the flies were transferred to an untreated area. […] 1 ml of Composition 8c was distributed on the tile. […] 1 ml of Composition 8c was distributed on a tile. […] At the end of the 30 minutes, the flies were transferred to an untreated area.
# 1 ml of Composition 5a, was distributed on the tile. […] 1 ml of Composition 6a was distributed on the tile. […] 1 ml of Composition 7a was distributed on the tile.
# 1 ml of Composition 3 was distributed on the tile. […] 1 ml of Composition 9a was distributed on the tile. […] 1 ml of Composition 11a was distributed on a tile. […] 1 ml of Composition 12a was distributed on a tile.
# 1 ml of Composition 3 was distributed on the tile. […] 1 ml of Composition 17a was distributed on a tile. […] 1 ml of Composition 18a was distributed on a tile. […] Each experiment (A-C) was conducted in duplicate.
# 1 ml of Composition 23a was distributed on the tile. […] 1 ml of Composition 20a was distributed on a tile. […] Each experiment (A-B) was conducted in duplicate.
# 1 ml of Composition 3 was distributed on the tile. […] 1 ml of Composition 25a was distributed on a tile. […] Each experiment (A-B) was conducted in duplicate.
# 1 ml of Composition 23a was distributed on the tile. […] 1 ml of Composition 27a was distributed on a tile. […] Each experiment (A-B) was conducted in duplicate.
# 1 ml of Composition 26a was distributed on a tile. […] 1 ml of Composition 26b was distributed on a tile. […] 1 ml of Composition 26c was distributed on a tile.
# 1 ml of Composition 22a was distributed on a tile. […] 1 ml of Composition 22b was distributed on a tile. […] 1 ml of Composition 22c was distributed on a tile.
# 1 ml of Composition 23a was distributed on the tile. […] 1 ml of Composition 44a was distributed on a tile.
# 1 ml of Composition 33 was distributed on a tile. […] 1 ml of Composition 33 was distributed on a tile. […] At the end of the 30 minutes, the flies were transferred to an untreated area.
# 1 ml of Composition 1 was distributed on the tile. […] 1 ml of Composition 34 was distributed on a tile. […] 1 ml of Composition 34 was distributed on a tile. […] At the end of the 30 minutes, the flies were transferred to an untreated area.
# 1 ml of Composition 3 was distributed on the tile. […] 1 ml of Composition 31a was distributed on a tile. […] 1 ml of Composition 31b was distributed on a tile. […] 1 ml of Composition 31b was distributed on a tile. […] At the end of the 30 minutes, the flies were transferred to an untreated area. […] 1 ml of Composition 38a was distributed on a tile. […] 1 ml of Composition 38a was distributed on a tile. […] At the end of the 30 minutes, the flies were transferred to an untreated area.
# G) According to the invention. 1 ml of Composition 40a was distributed on a tile. […] Subsequently, after waiting for the solvent to evaporate, 10 flies were placed on top of the treated til
# [3] = Musca domestica, single substance alone, 48 h, read-out: Mortality %/time (h)
compound,measurement,setting,value
"CCCCCCCC/C=C\CCCCCCCCOC(C)=O [Composition 25b, Oleyl acetate]",Mortality %/time (h) (application),"[1]; Blatta orientalis, 48 h",0/48 ^ %
oleic alcohol [Composition 8b],Mortality %/time (h) (application),"[1]; Blatta orientalis, 48 h",0/48 ^ %
"CC1(C)C(C=C(Cl)Cl)C1C(=O)OC(C#N)c1cccc(Oc2ccccc2)c1 (stereo not drawn) [Composition 3, Cypermethrin, reference compound]",Mortality %,"[2]; Example 3, 26° C, 24 h",10%
same,Mortality %,"[2]; Example 3, 26° C, 48 h",20%
same,Mortality %,"[2]; Example 9, 21° C, 24 h",5%
same,Mortality %,"[2]; Example 9, 21° C, 48 h",16%
same,Mortality %,"[2]; Example 12, 21° C, 24 h",5%
same,Mortality %,"[2]; Example 12, 21° C, 48 h",16%
same,Mortality %,"[2]; Example 17, 21° C, 48 h",16%
same,Mortality %,"[2]; Example 29, 25° C, 24 h",10%
same,Mortality %,"[2]; Example 29, 25° C, 48 h",16%
CCCCCCCCCCCCO [Dodecanol],mortality at 680 µg/mL,[2]; [3],4%
CCCCCCCCCCCCOC(C)=O [dodecyl acetate],synergizing effect on Cypermethrin,"[1]; Blatta orientalis, synergist applied with Cypermethrin",excellent-fine synergizing effect
"CCCCC(CC)COC(=O)OCC(CC)CCCC (stereo not drawn) [Composition 17b, Bis(2-ethyl-hexyl)-carbonate]",Mortality %/time (h) (application),"[1]; Blatta orientalis, 48 h",0/48 ^ %
"Spinosad [Composition 43, reference compound]",Mortality %,"[2]; Example 19, 25° C, 24 h",27%
same,Mortality %,"[2]; Example 23, 25° C, 24 h",27%
same,Mortality %,"[2]; Example 27, 25° C, 24 h",27%
"CC1(C)C(C=C(Cl)Cl)C1C(=O)OC(C#N)c1cccc(Oc2ccccc2)c1 (stereo not drawn) [Composition 46b, Cypermethrin]",Mortality %,[1]; 24 h,8%
same,Mortality %,[1]; 48 h,17%
same,Mortality %/time (h) (application),"[1]; Blatta orientalis, 48 h, listed as Cypermethrin (0.10)",17/48 ^ %
"CCCCCCC(O)CO (stereo not drawn) [1,2-octandiol]",mortality at 680 µg/mL,[2]; [3],0%
CC1(C)C(C=C(Cl)Cl)C1C(=O)OC(C#N)c1cccc(Oc2ccccc2)c1 (stereo not drawn) [Cypermethrin],mortality at 230 µg/mL,"[2]; Musca domestica, single substance alone, 0.23 mg/ml, 48 h, read-out: Mortality %/time (h)",10%
same,mortality at 450 µg/mL,"[2]; Musca domestica, single substance alone, 0.45 mg/ml, 48 h, read-out: Mortality %/time (h)",16%
"OCCCCCCCCO [1,8-octandiol]",mortality at 680 µg/mL,[2]; [3],0%
"CCCCCCCCCCC(O)CO (stereo not drawn) [1,2-dodecandiol]",mortality at 680 µg/mL,[2]; [3],0%
COP(=O)(OC)SCn1c(=O)oc2cc(Cl)cnc21 [Azamethiphos],mortality at 6900 µg/mL,"[2]; Musca domestica, 48 h, read-out: Mortality %/time (h)",23%
"CC1(C)C(C=C(Cl)Cl)C1C(=O)OC(C#N)c1cccc(Oc2ccccc2)c1 (stereo not drawn) [Composition 46a, Cypermethrin, reference compound]",Mortality %,"[2]; Example 35, 25° C, 24 h",5%
same,Mortality %,"[2]; Example 35, 25° C, 48 h",10%
"COP(=O)(OC)SCn1c(=O)oc2cc(Cl)cnc21 [Composition 23a, Azamethiphos, reference compound]",Mortality %,"[2]; Example 14, 21° C, 48 h",23%
same,Mortality %,"[2]; Example 18, 21° C, 24 h",23%
same,Mortality %,"[2]; Example 24, 25° C, 24 h",10%
same,Mortality %,"[2]; Example 30, 25° C, 24 h",10%
same,Mortality %,"[2]; Example 30, 25° C, 48 h",23%
